Experimental findings from patent US5162571A, “Phenol derivatives, their production and use” (Takeda Chemical Industries, Ltd., priority 1987, dated 1992) are described below.

The target in data set [1] is T1, specific [^3 H] U-46619 binding to guinea pig platelet membrane (Cavia porcellus, UniProt A0A286Y4I8).
T1 construct: Platelet membranes were prepared according to the following procedure; from tissue; host or cells: guinea pig platelet membranes
T1 sequence (A0A286Y4I8 1-347): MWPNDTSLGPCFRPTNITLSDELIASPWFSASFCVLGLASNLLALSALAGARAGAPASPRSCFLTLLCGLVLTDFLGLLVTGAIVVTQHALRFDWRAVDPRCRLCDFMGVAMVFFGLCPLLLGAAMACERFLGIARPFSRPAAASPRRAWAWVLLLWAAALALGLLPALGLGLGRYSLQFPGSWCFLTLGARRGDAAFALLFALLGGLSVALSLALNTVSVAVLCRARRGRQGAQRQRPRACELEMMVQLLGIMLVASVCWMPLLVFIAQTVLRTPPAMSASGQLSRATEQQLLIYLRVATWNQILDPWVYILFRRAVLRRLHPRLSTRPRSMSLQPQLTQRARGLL
Put plainly: Inhibition of specific [^3 H] U-46619 binding to guinea pig platelet membrane. The conditions noted are these: [^3 H] U-46619, 25° C., 30 min; read-out: IC50 (Concentration for 50% inhibition). As for the experimental part:
Inhibition of specific [^3 H] U-46619 binding to guinea pig platelet membrane
Method: Blood from normal guinea pig was collected into 0.315% citrate solution containing aspirin (final concentration 1 mM) and was centrifuged at 3000 r.p.m. for […]. The PRP (platelet rich plasma) was centrifuged at 4800 r.p.m for 10 min. at 4° C. Platelet membranes were prepared according to the following procedure: In order to remove the residual plasma protein, the platelet pellet was washed once with 30 ml of buffer containing 25 mM Tris-HCl/5 mM MgCl2 (pH 7.4) and recentrifuged to pellet the platelets. The platelets were then resuspended in 20 ml of the same buffer, and the cells were disrupted by sonication. The sonication was performed on ice using a Kontes Sonicator (Vineland, N.J.). The platelets were sonicated for a total of 90 sec. with a 15 sec. burst followed by a 15 sec. intermission. The sonicated mixture was centrifuged at 100,000×g for 1 hour and the membrane fraction was suspended in the same buffer. The protein concentration was adjusted to 1 mg/ml.
The binding assay was performed at 25° C. for 30 min. One ml of the resuspended membrane fraction was incubated with […] of [^3 H] U-46619. The incubation mixture was filtered through a glass fiber membrane (GF/C, whatman) to separate the membrane bound from free [^3 H] U-46619. The membranes were quickly washed twice with 5 ml of cold buffer, mixed with 4 ml of ACS scintillation fluid and counted for [^3 H] U-46619.

Data set [2] can be described thus: Extension of bleeding time. The data set is classed as in vivo, rat. The conditions noted are these: one hour before. Here is the method: Extension of bleeding time
Method: Test compounds were administered orally to rats one hour before the experiments. The rats were anesthetized and the tail was cut at 1.5 mm from the tip. Immediately, the tail was hung down into a physiological saline warmed at 37° C. The time required from initiation to stop of bleeding (bleeding time) was measured.

For data set [3], the system named is vasoconstriction by PGD2 (rabbit aorta). Put plainly: Inhibitory effect of vasoconstriction by PGD2. The data set is classed as cell-based. The conditions noted are these: Oryctolagus cuniculus; 10^-7 M; PGD2 (3×10^-6 M); n = 2; read-out: Inhibitory Rate (%). Here is the method: Inhibitory effect of vasoconstriction by PGD2
Method: A spiral strip of the rabbit aorta (2-3 mm wide, about 3 cm long) was suspended in Krebs-Henseleit solution under the load of 2 g. The Krebs-Henseleit solution was saturated with a mixed gas of 95% O2 -5% CO2 and warmed at 37° C. Inhibition of the contraction of the vascular strip caused by addition of PGD2 (3×10^-6 M) by pretreatment with Compound No. 13 30 minutes before was studied.

Data set [4] deals with T2, Thromboxane A2 (TXA2) receptor (Oryctolagus cuniculus, UniProt Q6WQI8).
T2 construct: contraction by TXA2 mimics U-44069 or U-46619
T2 sequence (Q6WQI8 1-233): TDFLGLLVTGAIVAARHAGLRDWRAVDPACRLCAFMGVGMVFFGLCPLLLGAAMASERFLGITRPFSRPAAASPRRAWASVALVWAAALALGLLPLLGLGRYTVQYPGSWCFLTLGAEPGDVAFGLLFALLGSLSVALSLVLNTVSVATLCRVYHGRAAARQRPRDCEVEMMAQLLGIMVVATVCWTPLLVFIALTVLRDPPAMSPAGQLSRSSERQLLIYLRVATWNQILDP
Put plainly: Thromboxane A2 (TXA2) receptor antagonism: inhibitory effect on contraction of rabbit aorta by TXA2-mimics. The data set is classed as cell-based. Particulars: U-44069 (10^-7 M)-induced contraction. Here is the method:
Thromboxane A2 (TXA2) receptor antagonism
Inhibitory effect on contraction of rabbit aorta by thromboxan A2 (TXA2)-mimics
Method: A spiral strip of the rabbit aorta (2-3 mm wide, about 3 cm long) was suspended in Krebs-Henseleit solution under the load of 2 g. The Krebs-Henseleit solution was saturated with a mixed gas of 95%O2 -5%CO2 and warmed at 37° C. Inhibition of the contraction of the vascular strip caused by a TXA2 mimic substance U-44069^1) (10^-7 M) or U-46619^2) (3×10 ^-8 M), by pretreatment with Compound No. 13 30 minutes before was studied.
1) U-44069: (5Z, 9α, 11α, 13E, 15S)-15-hydroxy-9,11-(epoxymethano)-prosta-5,13-dienoic acid (manufacturedby The Upjohn Company in U.S.A.)
2) U-46619: (5Z, 9α, 11α, […], 15S)-15-hydroxy-11,9-(epoxymethano)-prosta-5,13-dienoic acid (manufacturedby Cayman Chemical Company)
In Table 5, "*" represents addition of U-46619.

The subject of data set [5] is U-46619 (TXA2 mimic)-induced broncho-constriction. Put plainly: Inhibitory effect on U-46619 (TXA2 mimic)-induced broncho-constriction in guinea pig. The data set is classed as in vivo. The conditions noted are these: Cavia porcellus, ** p < 0.01. Here is the method:
Inhibitory effect on U-46619 (TXA2 mimic)-induced broncho-constrictionin guinea pig
Method: Eight male Hartley guinea pigs were used per one group. The guinea pig anesthetized with urethane (1.5 g/kg, i.p.) was fixed in a dorsal position, subjected to tracheotomy and connected to a respirator through a cannula. A side branch of the tracheal cannula was connected to a respirator (Harvard apparatus rodent respirator Type 680) at the rate of 70 strokes/min. and a constant volume of 3 to 5 ml.
Inflation pressure was kept constant at 10 cm H2 O.
After treatment with gallamine triethiodide (1 mg/kg, i.v.), U-46619 (10 μg/Kg) dissolved in a physiological saline solution was given through a carotid cannula and the airway resistance was measured by the overflow technique of Konzett-Rossler method (Konzett, H. and Rossler, R., Naunyn-Schmiedegerg's Arch, Exp. Path. Pharmak., 195, 71-74 (1940). A test compound was suspended in 5% gum arabic solution and was administered orally 1 hour before the treatment with U-46619.
Alternatively, a test compound was dissolved in aqueous 50% dimethylsulfoxide solution and administered interveneously in the dosage of 0.1 ml/100 g body weight 9 minutes before the treatment of U-46619.

As usually defined, the inhibition in vivo is the share of the control response that was lost under treatment. Low values mean a response near the control, high ones a response far below the control. In the case of `Cc1c(O)c(C(CCCCCC(=O)O)c2ccc(F)cc2)c(C)c2c1CCC2` (centres unmarked) [Compound 21], in data set [1], the IC50 was 49 nM. The Bleeding time turned out to be 235 ± 38 s in data set [2] (10 mg/kg oral, control 173 ± 23, * p < 0.05) and 529 ± 154 s in data set [2] (30 mg/kg oral, control 164 ± 27, ** p < 0.01). Also, the inhibition at 0.1 µM in data set [3] is 54%; in data set [4] (10^-7 M) it was 5%. The inhibition at 1 µM in data set [4] (10^-6 M) is 99%. Besides, in data set [5] (iv, 0.31 mg/kg i.v., 9 minutes before U-46619), the inhibition in vivo at 0.31 mg/kg turned out to be 51%. Further, 5 mg/kg produced 76% inhibition in vivo in data set [5] (po, 5 mg/kg p.o., 1 hour before U-46619).
